Measured values reported in ChEMBL document CHEMBL5726932, “Cyclopropanecarboxylic acid GPR120 modulators” (2018).

Target: T1, Free fatty acid receptor 4 (Homo sapiens, UniProt Q5NUL3)
T1 sequence (Q5NUL3 whole entry): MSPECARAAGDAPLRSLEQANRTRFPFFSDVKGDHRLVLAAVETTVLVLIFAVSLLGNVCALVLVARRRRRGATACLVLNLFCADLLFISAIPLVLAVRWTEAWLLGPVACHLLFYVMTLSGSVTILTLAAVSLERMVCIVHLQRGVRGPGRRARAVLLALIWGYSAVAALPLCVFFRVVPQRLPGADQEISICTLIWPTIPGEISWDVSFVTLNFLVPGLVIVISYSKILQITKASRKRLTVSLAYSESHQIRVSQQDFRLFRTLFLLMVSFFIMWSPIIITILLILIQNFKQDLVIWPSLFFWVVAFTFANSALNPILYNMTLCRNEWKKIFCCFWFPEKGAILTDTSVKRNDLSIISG
Assay: GPR120 pERK assay: For the pERK assay, 3×10^6 cells/mL cryopreserved human and mouse cells were thawed rapidly in a 37° C. water bath and added to a T-225 flask containing 50 mL growth medium. The flasks were placed in a tissue culture incubator overnight (37° C., 5% CO2). The next day, cells were harvested with trypsin (Gibco Cat. #25300-054), resuspended in serum-containing growth medium and counted using a Cellometer and volume adjusted to a concentration of 0.5×10^6 cells/mL. Cells were plated into 384-well clear bottom tissue culture plates (BD Cat. #353962) at 50 μL/well, for a density of 25,000 cells/well using a MULTIDROP® and incubated for 16-18 hours (overnight) at 37° C. with 5% CO2. The next day, cells were washed once with 50 μL of PBS without Ca++/Mg++ (Gibco Cat. #14190-036) and serum starved in 25 μL of F-12 media without any serum or antibiotics for 2 hours at 37° C.Test compounds were 3-fold, 11-point serially diluted in DMSO in a REMP assay plate (Matrix Cat. #4307) by Tecan and 5 μL was transferred into an ECHO source plate (Labcyte Cat. #LC-0200). Cells were then stimulated with 40 nL of compound dilutions using ECHO liquid handler for 7 min at 37° C. […]

| SMILES | EC50 |
| --- | --- |
| O=C(O)C1CC1COc1ccc(-c2cccc(-c3ccccc3)c2)cc1 (configuration not stated) | 1.7 µM |
| O=C(O)C1CC1COc1ccc(-c2ccccc2-c2ccccc2)cc1 (configuration not stated) | 6.84 µM |
